Assay results reported in ChEMBL document CHEMBL1201862, “PubChem BioAssay data set” (2004).
Activity calls are given as the source filed them.

Tests used:
H4 = assay: Luminescence Cell-Based Dose Response HTS to Identify Activators of 5'UTR Stem-Loop Driven Prion Protein mRNA Translation in H4 Neuroglioblastoma Cells. [Related pubchem assays: 1829 (Project Summary), 1814 (Primary HTS)]; format: functional; details: Homo sapiens
[1] = Luminescence Cell-Based Dose Confirmation HTS to Identify Activators of 5'UTR Stem-Loop Driven Alpha-Synuclein mRNA Translation in H4 Neuroglioblastoma Cells. [Related pubchem assays: 1829 (Project Summary), 1814 (Primary HTS)]; format: functional
[2] = Luminescence Cell-Based Dose Response HTS to Identify Activators of Luciferase Translation or Activity in H4 […] Cells. [Related pubchem assays: 1829 (Project Summary), 1814 (Primary HTS)]; format: functional
[3] = target: T1, Corticotropin-releasing factor receptor 2/Corticotropin-releasing factor-binding protein (Homo sapiens, UniProt P24387+Q13324); assay: activators of CRF receptor 2 with binding protein – uHTS hits, confirmation (AID 602473); format: functional; details: read-out: EC50_Mean
T1 sequence (Q13324 whole entry): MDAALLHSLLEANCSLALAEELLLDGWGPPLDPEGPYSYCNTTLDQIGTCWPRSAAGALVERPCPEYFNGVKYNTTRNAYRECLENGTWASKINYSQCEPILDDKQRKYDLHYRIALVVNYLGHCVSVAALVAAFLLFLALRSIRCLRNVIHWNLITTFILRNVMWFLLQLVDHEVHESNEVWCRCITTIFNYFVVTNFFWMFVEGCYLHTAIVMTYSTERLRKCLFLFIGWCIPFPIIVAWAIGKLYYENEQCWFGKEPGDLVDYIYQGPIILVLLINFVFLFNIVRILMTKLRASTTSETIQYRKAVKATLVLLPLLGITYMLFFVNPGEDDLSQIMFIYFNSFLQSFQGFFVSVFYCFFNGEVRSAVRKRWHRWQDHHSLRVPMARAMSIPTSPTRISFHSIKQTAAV
T1 sequence (P24387 whole entry): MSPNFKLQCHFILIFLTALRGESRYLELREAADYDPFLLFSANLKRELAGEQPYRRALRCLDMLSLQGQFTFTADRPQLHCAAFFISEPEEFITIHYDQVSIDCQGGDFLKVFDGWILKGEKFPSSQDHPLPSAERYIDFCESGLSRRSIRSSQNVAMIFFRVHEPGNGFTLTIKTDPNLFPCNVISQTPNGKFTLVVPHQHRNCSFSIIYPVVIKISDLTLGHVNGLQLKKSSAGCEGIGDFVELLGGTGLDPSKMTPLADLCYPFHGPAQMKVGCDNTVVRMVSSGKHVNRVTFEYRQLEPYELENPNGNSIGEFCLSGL

[4] = blockers of CRF-binding protein–CRF-R2 complex – cell-based, uHTS hits, 384-well, dose response (AID 651639); format: functional, Homo sapiens; details: read-out: IC50_Mean
[5] = target: T1, Corticotropin-releasing factor receptor 2/Corticotropin-releasing factor-binding protein; assay: Dose Response confirmation of uHTS hits for small molecule antagonists of the CRF-binding protein and CRF-R2 receptor complex.; format: functional; details: read-out: IC50_Mean
[6] = blockers of HIV-1 envelope-mediated cell-cell fusion – cherry-pick, dose response (AID 652057); format: functional, cell-based
[7] = HIV-1 AD8 envelope cell-cell fusion blockers – cherry-pick, dose response (AID 652062); format: functional, cell-based;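 also: luciferase signal from cell-cell fusion driven by HIV-1 clade B AD8 Env; potency is for inhibitors of fusion seen as a drop in luminescence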
[8] = P. falciparum Dd2 growth inhibitors, dose response, SYBR Green, cherry-picked samples (AID 1159567); format: functional, cell-based
[9] = target: Induced myeloid leukemia cell differentiation protein Mcl-1 (Homo sapiens, UniProt Q07820); format: functional
Induced myeloid leukemia cell differentiation protein Mcl-1, sequence (Q07820 whole entry): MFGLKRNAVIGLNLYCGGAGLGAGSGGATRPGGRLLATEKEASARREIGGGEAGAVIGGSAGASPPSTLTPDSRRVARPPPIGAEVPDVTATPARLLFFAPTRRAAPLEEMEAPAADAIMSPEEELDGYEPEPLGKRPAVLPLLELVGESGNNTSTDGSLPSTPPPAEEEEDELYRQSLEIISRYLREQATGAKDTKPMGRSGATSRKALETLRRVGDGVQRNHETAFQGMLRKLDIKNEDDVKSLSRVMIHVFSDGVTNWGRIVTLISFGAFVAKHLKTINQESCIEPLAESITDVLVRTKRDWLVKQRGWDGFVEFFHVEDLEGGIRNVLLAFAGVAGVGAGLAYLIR

Streptococcus = assay: GAS UMAA2166 growth inhibition – luminescence, BacTiterGlo, counter-screen for streptokinase expression inhibitor project, dose response (AID 1915); format: functional, organism-based;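 also: potency for reduction of bacterial viability or growth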
[10] = test system: Streptococcus sp. 'group A'; assay: Streptococcus pyogenes SK(-)GAS viability under kanamycin – luminescence, BacTiterGlo, confirmation, counter-screen for streptokinase expression inhibitor project, dose response (AID 1900); format: functional, organism-based
[11] = target: T2, Histone-lysine N-methyltransferase NSD2 (Homo sapiens, UniProt O96028); format: biochemical
T2 sequence (O96028 whole entry): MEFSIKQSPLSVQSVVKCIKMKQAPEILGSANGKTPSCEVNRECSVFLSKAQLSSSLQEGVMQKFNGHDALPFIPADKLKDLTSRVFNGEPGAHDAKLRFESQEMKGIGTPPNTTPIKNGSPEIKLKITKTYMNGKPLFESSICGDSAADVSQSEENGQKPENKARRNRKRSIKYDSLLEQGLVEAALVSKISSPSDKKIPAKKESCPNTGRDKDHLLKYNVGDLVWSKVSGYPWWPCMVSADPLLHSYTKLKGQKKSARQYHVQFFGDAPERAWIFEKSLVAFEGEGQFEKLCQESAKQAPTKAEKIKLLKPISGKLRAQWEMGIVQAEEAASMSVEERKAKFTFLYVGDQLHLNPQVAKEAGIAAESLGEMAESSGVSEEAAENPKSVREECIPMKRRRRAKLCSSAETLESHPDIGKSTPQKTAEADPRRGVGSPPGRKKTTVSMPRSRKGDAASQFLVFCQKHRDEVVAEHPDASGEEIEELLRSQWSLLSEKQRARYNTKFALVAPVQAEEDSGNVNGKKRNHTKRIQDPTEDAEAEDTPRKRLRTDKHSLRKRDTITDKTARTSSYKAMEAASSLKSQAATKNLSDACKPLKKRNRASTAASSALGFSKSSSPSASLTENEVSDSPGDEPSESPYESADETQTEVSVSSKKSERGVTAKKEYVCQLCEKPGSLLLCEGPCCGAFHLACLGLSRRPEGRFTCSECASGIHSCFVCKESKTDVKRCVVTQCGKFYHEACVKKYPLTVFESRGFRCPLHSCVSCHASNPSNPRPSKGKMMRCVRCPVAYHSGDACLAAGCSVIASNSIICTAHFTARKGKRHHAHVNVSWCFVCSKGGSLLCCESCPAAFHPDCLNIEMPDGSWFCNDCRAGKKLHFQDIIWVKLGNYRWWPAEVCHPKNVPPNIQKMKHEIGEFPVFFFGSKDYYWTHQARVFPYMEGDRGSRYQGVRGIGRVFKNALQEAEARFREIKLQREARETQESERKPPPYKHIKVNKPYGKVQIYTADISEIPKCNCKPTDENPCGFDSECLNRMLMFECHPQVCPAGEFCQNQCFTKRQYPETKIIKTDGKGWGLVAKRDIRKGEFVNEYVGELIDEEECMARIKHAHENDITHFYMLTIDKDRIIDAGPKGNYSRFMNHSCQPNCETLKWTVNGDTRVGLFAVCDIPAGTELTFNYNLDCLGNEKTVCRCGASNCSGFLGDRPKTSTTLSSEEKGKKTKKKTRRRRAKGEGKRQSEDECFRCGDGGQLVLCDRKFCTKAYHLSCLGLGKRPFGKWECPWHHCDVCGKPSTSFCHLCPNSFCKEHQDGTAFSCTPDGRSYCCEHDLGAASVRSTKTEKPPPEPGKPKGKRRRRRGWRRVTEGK

[12] = target: T3, Microphthalmia-associated transcription factor (Homo sapiens, UniProt O75030); assay: reducers of TRPM1 reporter luminescence, concentration series – cell-based, SK-MEL-5, cherry-picked, set 3, MITF inhibitor project, dose response (AID 493073); format: functional;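 also: SK-MEL-5 melanoma cells with luciferase driven by the MITF target TRPM1 promoter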
T3 sequence (O75030 whole entry): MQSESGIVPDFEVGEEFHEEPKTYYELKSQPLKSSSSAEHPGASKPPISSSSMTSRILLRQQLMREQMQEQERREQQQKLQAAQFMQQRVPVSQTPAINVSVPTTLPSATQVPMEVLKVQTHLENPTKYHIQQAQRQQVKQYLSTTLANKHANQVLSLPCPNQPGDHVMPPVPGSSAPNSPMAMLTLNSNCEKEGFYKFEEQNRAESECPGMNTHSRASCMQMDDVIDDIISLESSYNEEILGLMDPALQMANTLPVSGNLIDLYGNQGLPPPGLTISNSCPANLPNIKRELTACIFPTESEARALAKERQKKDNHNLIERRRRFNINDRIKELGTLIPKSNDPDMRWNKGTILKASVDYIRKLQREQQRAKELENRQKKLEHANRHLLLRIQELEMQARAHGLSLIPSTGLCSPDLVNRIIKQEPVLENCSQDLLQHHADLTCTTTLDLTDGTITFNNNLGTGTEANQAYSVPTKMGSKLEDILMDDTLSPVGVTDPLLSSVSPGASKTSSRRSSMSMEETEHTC

[13] = Luminescence Cell-Based Dose Response HTS to Identify Inhibitors of 5'UTR Stem-Loop Driven Prion Protein mRNA Translation in H4 Neuroglioblastoma Cells. [Related pubchem assays: 1827 (Project Summary), 1813 (Primary HTS)]; format: functional
[14] = alpha-synuclein stem-loop luciferase translation blockers – H4 neuroglioma cells, luminescence, confirmation (AID 1988); format: functional, cell-based
[15] = luciferase reporter signal suppression in cells – H4 neuroglioma cells, luminescence, dose response (AID 1990); format: functional, cell-based
[16] = target: FAD-linked sulfhydryl oxidase ALR (Homo sapiens, UniProt P55789); assay: ALR-catalysed DTT oxidation blockers – biochemical, H2O2 detection, luminescence, cherry-pick, dose response (AID 493248)
FAD-linked sulfhydryl oxidase ALR, sequence (P55789 whole entry): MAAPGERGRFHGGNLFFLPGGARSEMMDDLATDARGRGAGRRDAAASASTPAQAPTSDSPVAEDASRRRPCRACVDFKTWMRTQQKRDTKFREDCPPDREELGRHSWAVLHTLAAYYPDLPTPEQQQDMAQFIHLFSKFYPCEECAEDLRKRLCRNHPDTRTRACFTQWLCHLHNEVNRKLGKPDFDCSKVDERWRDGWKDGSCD

[17] = viability of HCT116 lacking mutant beta-catenin – cell-based, human colon tumor, dose response (AID 1045); format: functional;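 also: HCT116 colon tumor cells with beta catenin knocked out; cells exposed to compound for 60 hours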
[18] = viability of PTEN-deleted HCT116 cells – cell-based, HCT116 PTEN knockout, dose response (AID 1047); format: functional;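 also: HCT116 colon tumor cells with PTEN knocked out; cells exposed to compound for 60 hours before readout; potency for loss of cell viability measured by luminescence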

NC(=NOC(=O)Nc1ccccc1)c1ncc([N+](=O)[O-])s1
EC50 (H4): > 120 µM (not active) | EC50 [1]: > 120 µM (not active) | EC50 [2]: > 120 µM (not active)

COc1cc2nc3c(O)n4c(nc-3c2cc1OC)SCCC4
EC50 (H4): 24.5 µM (active) | EC50 [3]: > 53 µM (inactive) | EC50 [1]: > 120 µM (not active) | IC50 [4]: > 20 µM (inactive) | EC50 [2]: 3.61 µM (active) | IC50 [5]: 3.83 µM (active)

O=C(NCC1CCCO1)c1cc2c(s1)CCC2 (stereo not drawn)
EC50 (H4): 50.9 µM (active) | EC50 [1]: 20.3 µM (active) | EC50 [2]: 18.7 µM (active)

C[C@@H]1CC=C[C@H]2[C@H]1C(=O)N(Cc1ccccc1)[C@H]2c1ccc(-c2cc3ccccc3s2)cc1F
EC50 (H4): 0.11 µM (active) | EC50 [1]: 0.251 µM (active) | EC50 [2]: 61.8 µM (active)

COc1ccc(-c2ccc3c(c2)[C@@H]2[C@@H](CCN2C(=O)NC2CCCC2)[C@H](CO)N3C)cc1
AC50 [6]: 26.5 µM (active) | AC50 [7]: 2.83 µM (active)

CCCC(=O)Nc1ccc2c(c1)OC[C@@H](C)N(Cc1cc(-c3ccccc3)on1)C[C@@H](C)[C@H](OC)CN(C)C2=O
AC50 [8]: 5.19 µM (active)

C#CCn1c(=O)c2c(ncn2C)n(C)c1=O
AC50 [7]: 43.1 µM (active)

CCCNc1ccc(C(=O)OCC)cc1[N+](=O)[O-]
EC50 [3]: > 53 µM (inactive) | IC50 [4]: > 20 µM (inactive) | IC50 [5]: 17.6 µM (active)

O=C1NC(=S)N(C2CC2)C(=O)/C1=C/Nc1ccc2c(c1)OCO2
EC50 (H4): 18.7 µM (active) | EC50 [1]: 95.4 µM (active) | EC50 [2]: 13.3 µM (active)

C[C@H]1CN([C@@H](C)CO)C(=O)c2c(c3ccccc3n2C)-c2ccccc2CO[C@H]1CN(C)S(=O)(=O)c1ccccc1C#N
AC50 [8]: 5 µM (active)

COCC(=O)N1CC2(C1)CN(Cc1cccc(Cl)c1)[C@@H](CO)c1[nH]c3cc(OC)ccc3c12
AC50 [8]: 12.9 µM (active)

CCN(CC)C(=O)[C@H]1CC(CC(=O)NC/C=C(\C)CCC=C(C)C)C(=O)N2CCc3c([nH]c4ccc(OC)cc34)[C@]12C (stereo partly drawn)
EC50 [3]: > 53 µM (inactive) | IC50 [4]: 1.33 µM (active) | IC50 [5]: 3.54 µM (active)

O=c1c(/C=N/c2cc(O)nc(S)n2)coc2c1ccc1ccccc12
IC50 [9]: 4.68 µM (active) | EC50 (Streptococcus): 20.3 µM (active) | EC50 [10]: 0.752 µM (active)

N#C/C(=N\Nc1ccccc1)C(=N)N1CCCCCC1
EC50 (H4): > 120 µM (not active) | EC50 [1]: 0.132 µM (active)

CCN(CC)c1ccc(CN2CC=C(c3ccc(F)cc3)CC2)cc1
AC50 [11]: > 20 µM (inactive)

O=C(NCCc1ccc(F)cc1)c1[nH]nc2ccccc12
EC50 (H4): 24.5 µM (active) | EC50 [1]: 17.8 µM (active) | EC50 [2]: 42 µM (active)

C=CC[n+]1c(-c2ccc(C)cc2)csc1Nc1ccc(NC(C)=O)cc1
AC50 [12]: 1.57 µM (active) | EC50 [13]: 0.238 µM (active) | EC50 [14]: 0.246 µM (active) | EC50 [15]: 2.34 µM (active)

CC(CNC(=O)c1ccc(OC2CCN(Cc3ccccn3)CC2)cc1)c1ccccc1 (stereo not drawn)
EC50 (H4): 35.6 µM (active) | EC50 [1]: 18.2 µM (active) | EC50 [2]: 53.8 µM (active)

C[C@@H]1CN([C@@H](C)CO)C(=O)c2cc(NC(=O)Nc3ccc4c(c3)OCO4)ccc2O[C@H]1CN(C)C(=O)Nc1cccc2ccccc12
AC50 [8]: 4.89 µM (active)

COc1ccc(N2C(=O)CSC2c2ccc([N+](=O)[O-])cc2)cc1 (stereo not drawn)
EC50 [3]: > 53 µM (inactive) | IC50 [4]: 6.91 µM (active) | AC50 [16]: 5.9 µM (active) | IC50 [5]: 46.8 µM (active)

CN1C(=O)c2cc(NC(=O)c3cscn3)ccc2OC[C@@H]2O[C@@H](CC(=O)NCc3ccc(Cl)c(Cl)c3)CC[C@H]21
AC50 [6]: 48.6 µM (active) | AC50 [7]: 3.19 µM (active)

Cc1ccc(S(=O)(=O)Cc2ccc(C(=O)N3CCN(c4ccc(F)cc4)CC3)o2)cc1
EC50 [17]: 10.1 µM (active) | EC50 [18]: 9.74 µM (active)

CS(=O)(=O)N1[C@H](C#N)[C@H](c2ccccc2-c2ccc(F)cc2)[C@H]1CO
AC50 [8]: 16.6 µM (active)

Cc1ccc2c(c1)c1c3n2CCN(C(=O)CN2CCN(C)CC2)C3CCC1 (stereo not drawn)
EC50 [17]: 16.7 µM (active) | EC50 [18]: 16.1 µM (active)
